# Test results: patent publication EP0708091A1, “Indoloylguanidine derivatives” (SUMITOMO PHARMACEUTICALS COMPANY, LIMITED, priority 1994, dated 1996)
# Counter-ions that a name gives are not always drawn.
# Target: T1, Na⁺/H⁺ exchanger (Rattus norvegicus, UniProt P26431)
# T1 construct: using the vascular smooth muscle cells isolated from the rat thoracic aorta; endogenous in cells; host or cells: primary vascular smooth muscle cells isolated from rat thoracic aorta
# Assay: Inhibition of Na+/H+ exchanger activity in vitro (change in cell viability during acid loading)
# Format: cell-based
# Settings: minimum effective concentration (MEC), vascular smooth muscle cells isolated from the rat thoracic aorta
# Method: Inhibition of Na+/H+ exchanger activity in vitro Method:
# The experiment was performed by modifying the method of Mungre et al. described in Exp. Cell Res., 193, 236 (1991). That is, inhibition of the Na⁺/H⁺ exchanger activity was evaluated by the change in cell viability during acid loading, using the vascular smooth muscle cells isolated from the rat thoracic aorta.
# The compounds of the present invention shown in Examples were evaluated by the minimum effective concentration (MEC) for the inhibition of the Na⁺/H⁺ exchanger activity.
# T1 sequence (P26431 whole entry): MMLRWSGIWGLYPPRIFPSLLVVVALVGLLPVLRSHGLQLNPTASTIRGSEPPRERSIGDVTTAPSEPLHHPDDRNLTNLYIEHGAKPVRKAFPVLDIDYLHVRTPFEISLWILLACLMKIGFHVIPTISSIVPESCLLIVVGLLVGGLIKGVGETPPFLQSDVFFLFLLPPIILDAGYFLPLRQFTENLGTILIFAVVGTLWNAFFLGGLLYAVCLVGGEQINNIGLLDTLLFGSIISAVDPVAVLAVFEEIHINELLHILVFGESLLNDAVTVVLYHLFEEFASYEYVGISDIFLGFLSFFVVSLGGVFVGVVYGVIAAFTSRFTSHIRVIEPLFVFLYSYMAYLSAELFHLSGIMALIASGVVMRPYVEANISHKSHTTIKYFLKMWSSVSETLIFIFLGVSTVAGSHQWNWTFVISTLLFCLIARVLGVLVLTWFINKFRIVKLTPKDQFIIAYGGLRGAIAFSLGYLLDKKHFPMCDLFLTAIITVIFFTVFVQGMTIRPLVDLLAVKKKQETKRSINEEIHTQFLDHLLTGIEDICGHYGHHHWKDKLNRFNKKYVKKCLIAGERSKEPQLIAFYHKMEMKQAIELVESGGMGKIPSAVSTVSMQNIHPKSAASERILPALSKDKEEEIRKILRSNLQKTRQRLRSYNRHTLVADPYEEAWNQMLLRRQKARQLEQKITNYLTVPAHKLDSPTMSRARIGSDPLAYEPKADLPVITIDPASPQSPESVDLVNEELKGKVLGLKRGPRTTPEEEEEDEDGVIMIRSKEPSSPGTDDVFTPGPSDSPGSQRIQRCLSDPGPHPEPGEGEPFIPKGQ
row,SMILES,Inhibition of Na^+/H^+ Exchanger MEC [µM]
1,"NC(N)=NC(=O)c1nc(Cl)c(N2CCCCCC2)nc1N [5-Hexamethylene amiloride, reference compound]",0.3
2,"CN(C)c1nc(N)c(C(=O)N=C(N)N)nc1Cl [Dimethyl amiloride, reference compound]",3.0
3,"CN(C)CCCOc1ccc(Cl)c2cc(C(=O)NC(=N)N)n(C)c12 [Example 74, 4-Chloro-7-(3-dimethylaminopropoxy)-l-methyl-2-indoloylguanidine dihydrochloride]",0.1
4,"N=C(N)NC(=O)c1cc2ccccc2n1CCN1CCCC1 [Example 144, 1-[2-[(N-Pyrrolidinyl)ethyl]-2-indoloylguanidinedihydrochloride]",>10
5,"Cn1c(C(=O)NC(=N)N)cc2c(Cl)cc(OCCN)cc21 [Example 175, 6-(2-Aminoethoxy)-4-chloro-l-methyl-2-indoloylguanidine dihydrochloride]",0.03
